Data reported in ChEMBL document CHEMBL4342418, “1,2,3-Triazole-containing hybrids as potential anticancer agents: Current developments, action mechanisms and structure-activity relationships” (Eur J Med Chem, 2019).
Values belong to the compound of their own block, whether it stands above or below them.

Legend:
HepG2 [1] = test: Antiproliferative activity against human HepG2 cells assessed as reduction in cell viability after 72 hrs by MTT assay; assay type: functional, cell-based; conditions: HepG2, 72 h
A549 [2] = test: Potency index, ratio of foretinib IC50 to test compound IC50 for antiproliferative activity against human A549 cells; assay type: functional
HepG2 [3] = test: Potency index, ratio of foretinib IC50 to test compound IC50 for antiproliferative activity against human HepG2 cells; assay type: functional
MCF7 [4] = test: Potency index, ratio of foretinib IC50 to test compound IC50 for antiproliferative activity against human MCF7 cells; assay type: functional
A549 [5] = test: Antiproliferative activity against human A549 cells assessed as reduction in cell viability after 72 hrs by MTT assay; assay type: functional, cell-based; conditions: A549, 72 h
MCF7 [6] = test: Antiproliferative activity against human MCF7 cells assessed as reduction in cell viability after 72 hrs by MTT assay; assay type: functional, cell-based; conditions: MCF7, 72 h
NCI-H23 = test: cells; assay type: functional, cell-based; conditions: Homo sapiens, NCI-H23, 48 h
Description: Antiproliferative activity against human NCI-H23 cells assessed as reduction in cell viability after 48 hrs by MTT assay

SW-620 = test: cells; assay type: functional, cell-based; conditions: Homo sapiens, SW-620, 48 h
Description: Antiproliferative activity against human SW620 cells assessed as reduction in cell viability after 48 hrs by MTT assay

PC-3 [7] = test: cells; assay type: functional, cell-based; conditions: Homo sapiens, PC-3, 48 h
Description: Antiproliferative activity against human PC3 cells assessed as reduction in cell viability after 48 hrs by MTT assay

ASPC1 = test: cells; assay type: functional, cell-based; conditions: Homo sapiens, ASPC1, 48 h
Description: Antiproliferative activity against human Aspc-1 cells assessed as reduction in cell viability after 48 hrs by MTT assay

[8] = Antiproliferative activity against human GBM2 cells assessed as reduction in cell viability after 72 hrs by MTT assay; assay type: functional, cell-based; conditions: GBM2, 72 h
[9] = Antiproliferative activity against human GBM95 cells assessed as reduction in cell viability after 72 hrs by MTT assay; assay type: functional, cell-based
[10] = Potency index, ratio of temozolomide IC50 to test compound IC50 for antiproliferative activity against human GBM2 cells; assay type: functional
[11] = Potency index, ratio of temozolomide IC50 to test compound IC50 for antiproliferative activity against human GBM95 cells; assay type: functional
DU-145 [12] = test: Antiproliferative activity against human DU145 cells by MTT assay; assay type: functional, cell-based
B16 = test: Antiproliferative activity against mouse B16 cells by MTT assay; assay type: functional, cell-based
HeLa [13] = test: Antiproliferative activity against human HeLa cells by MTT assay; assay type: functional, cell-based
MCF7 [14] = test: cells; assay type: functional, cell-based; conditions: Homo sapiens
Description: Antiproliferative activity against human MCF7 cells by MTT assay

A549 [15] = test: cells; assay type: functional, cell-based; conditions: Homo sapiens
Description: Antiproliferative activity against human A549 cells by MTT assay

OVCAR-3 = test: Antiproliferative activity against human OVCAR3 cells by SRB assay; assay type: functional
SK-OV-3 = test: Antiproliferative activity against human SKOV3 cells by SRB assay; assay type: functional, cell-based
Caov-3 cell line = test: Antiproliferative activity against human Caov3 cells by SRB assay; assay type: functional
SNB-19 = test: Antiproliferative activity against human SNB19 cells assessed as reduction in cell viability after 48 hrs by MTT assay; assay type: functional, cell-based; conditions: SNB-19, 48 h
T47D = test: Antiproliferative activity against human T47D cells assessed as reduction in cell viability after 48 hrs by MTT assay; assay type: functional, cell-based
MCF7 [16] = test: Antiproliferative activity against human MCF7 cells assessed as reduction in cell viability after 48 hrs by MTT assay; assay type: functional, cell-based; conditions: MCF7, 48 h
HeLa [17] = test: Antiproliferative activity against human HeLa cells by SRB assay; assay type: functional, cell-based
IMR-32 [18] = test: Antiproliferative activity against human IMR32 cells assessed as reduction in cell viability after 72 hrs by MTT assay; assay type: functional, cell-based; conditions: IMR-32, 72 h
A-431 = test: Antiproliferative activity against human A431 cells assessed as reduction in cell viability after 24 hrs by MTT assay; assay type: functional, cell-based; conditions: A-431, 24 h
[19] = Antiproliferative activity against human MiaPaCa cells by SRB assay; assay type: functional; conditions: MIA PaCa-2
U-87 MG = test: Antiproliferative activity against human U87 cells assessed as reduction in cell viability after 72 hrs by MTT assay; assay type: functional, cell-based, U-87MG ATCC
A549 [20] = test: Growth inhibition in human A549 cells after 48 hrs by SRB assay; assay type: functional; conditions: A549, 48 h
COLO 205 = test: Antiproliferative activity against human COLO205 cells assessed as reduction in cell viability after 24 hrs by MTT assay; assay type: functional, cell-based; conditions: COLO 205, 24 h
K562 = test: Antiproliferative activity against human K562 cells assessed as reduction in cell viability after 24 hrs by MTT assay; assay type: functional, cell-based; conditions: K562, 24 h
IMR-32 [21] = test: Growth inhibition in human IMR32 cells after 48 hrs by SRB assay; assay type: functional; conditions: IMR-32, 48 h
DU-145 [22] = test: Growth inhibition in human DU145 cells after 48 hrs by SRB assay; assay type: functional; conditions: DU-145, 48 h
PC-3 [23] = test: Antiproliferative activity against human PC3 cells assessed as reduction in cell viability after 24 hrs by MTT assay; assay type: functional, cell-based; conditions: PC-3, 24 h
MDA-MB-231 [24] = test: Antiproliferative activity against human MDA-MB-231 cells assessed as reduction in cell viability after 48 hrs by MTT assay; assay type: functional, cell-based; conditions: MDA-MB-231, 48 h
HeLa [25] = test: Antiproliferative activity against human HeLa cells assessed as reduction in cell viability after 48 hrs by MTT assay; assay type: functional, cell-based
HT-29 = test: Antiproliferative activity against human HT-29 cells assessed as reduction in cell viability after 72 hrs by MTT assay; assay type: functional, cell-based; conditions: HT-29, 72 h
MDA-MB-231 [26] = test: Antiproliferative activity against human MDA-MB-231 cells by SRB assay; assay type: functional
PANC-1 = test: Growth inhibition in human PANC1 cells after 48 hrs by SRB assay; assay type: functional; conditions: PANC-1, 48 h
MDA-MB-231 [27] = test: Antiproliferative activity against human MDA-MB-231 cells assessed as reduction in cell viability after 72 hrs by MTT assay; assay type: functional, cell-based; conditions: MDA-MB-231, 72 h
A549 [28] = test: Antiproliferative activity against human A549 cells assessed as reduction in cell viability after 24 hrs by MTT assay; assay type: functional, cell-based; conditions: A549, 24 h
MDA-MB-231 [29] = test: Growth inhibition in human MDA-MB-231 cells after 48 hrs by SRB assay; assay type: functional; conditions: MDA-MB-231, 48 h
IMR-32 [30] = test: Antiproliferative activity against human IMR32 cells by SRB assay; assay type: functional
MDA-MB-231 [31] = test: Antiproliferative activity against human MDA-MB-231 cells assessed as reduction in cell viability after 24 hrs by MTT assay; assay type: functional, cell-based; conditions: MDA-MB-231, 24 h
Caco-2 = test: Antiproliferative activity against human Caco2 cells assessed as reduction in cell viability after 48 hrs by MTT assay; assay type: functional, cell-based; conditions: Caco-2, 48 h
HCT-116 = test: Antiproliferative activity against human HCT116 cells assessed as reduction in cell viability after 48 hrs by MTT assay; assay type: functional, cell-based; conditions: HCT-116, 48 h
MDA-MB-231 [32] = test: cells; conditions: Homo sapiens
Description: Antiproliferative activity against human MDA-MB-231 cells assessed as reduction in cell viability preincubated for 24 hrs under hypoxia condition further incubated for 72 hrs under normaxic condition by MTT assay

MOLT-4 = test: Antiproliferative activity against human MOLT4 cells assessed as reduction in cell viability after 72 hrs by MTT assay; assay type: functional, cell-based; conditions: MOLT-4, 72 h
SiHa = test: Growth inhibition in human SiHa cells after 48 hrs by SRB assay; assay type: functional
PC-3 [33] = test: Antiproliferative activity against human PC3 cells by MTT assay; assay type: functional, cell-based
HepG2 [34] = test: Antiproliferative activity against human HepG2 cells by MTT assay; assay type: functional, cell-based
NIH3T3 = test: Antiproliferative activity against mouse NIH/3T3 cells by MTT assay; assay type: functional, cell-based

IC50 (NCI-H23): 490 to 760 nM
IC50 (SW-620): 490 to 760 nM
IC50 (PC-3 [7]): 490 to 760 nM
IC50 (ASPC1): 490 to 760 nM
SMILES: Cc1ccc2c(c1)/C(=N\O)C(=O)N2Cc1cn(CCCC(=O)NO)nn1

GI50 (OVCAR-3): 10 to 20 µM
GI50 (SK-OV-3): 10 to 20 µM
SMILES: COc1cc(O)c2c(=O)cc(-c3ccc(OCc4cn(-c5ccccc5F)nn4)cc3)oc2c1
GI50 (Caov-3 cell line): 10 to 20 µM

IC50 (T47D): 50 to 90 nM
IC50 (MCF7 [16]): 50 to 90 nM
SMILES: C=C(C)[C@@H]1CC[C@]2(OC(=O)c3cn(Cc4ccc(F)cc4)nn3)CC[C@]3(C)[C@H](CC[C@@H]4[C@@]5(C)CC[C@H](OC(=O)c6cn(Cc7ccc(F)cc7)nn6)C(C)(C)[C@@H]5CC[C@]43C)[C@@H]12
IC50 (SNB-19): 50 to 90 nM

Continued, compound first:

SMILES: O=C(Nc1ccc(Oc2ncnc3ccsc23)cc1)c1nnn(-c2ccc(Cl)cc2)c1C(F)(F)F
IC50 (HepG2 [1]): 500 to 1000 nM
Ratio IC50 (A549 [2]): 3.6 - 5.2
Ratio IC50 (HepG2 [3]): 3.6 - 5.2
Ratio IC50 (MCF7 [4]): 3.6 - 5.2
IC50 (A549 [5]): 500 to 1000 nM
IC50 (MCF7 [6]): 500 to 1000 nM

SMILES: O=Cc1ccccc1-n1cc(COc2cccc(OCc3cn(-c4ccccc4C=O)nn3)c2)nn1
IC50 [8]: 30.3 µM
IC50 [9]: 38.2 µM
Ratio IC50 [10]: 37.3
Ratio IC50 [11]: 16.3

SMILES: CCc1ccc(-c2cn(CCNC3=C(C)C(=O)c4ccccc4C3=O)nn2)cc1
IC50 (DU-145 [12]): 8.02 to 26.1 µM
IC50 (B16): 8.02 to 26.1 µM
IC50 (HeLa [13]): 8.02 to 26.1 µM
IC50 (MCF7 [14]): 8.02 to 26.1 µM
IC50 (A549 [15]): 8.02 to 26.1 µM

SMILES: COc1cccc2c1C(=O)c1c(O)c3c(c(O)c1C2=O)C[C@@](O)(C(=O)CO)C[C@@H]3O[C@H]1C[C@H](N)[C@H](O)[C@H](C)O1 [DOXORUBICIN]
GI50 (HeLa [17]): 23 to 97 nM
IC50 (IMR-32 [18]): 80 to 425 nM
IC50 (A-431): 1.43 to 12 µM
GI50 [19]: 23 to 97 nM
IC50 (U-87 MG): 80 to 425 nM
GI50 (A549 [20]): < 10 nM
IC50 (COLO 205): 1.43 to 12 µM
IC50 (K562): 1.43 to 12 µM
GI50 (IMR-32 [21]): < 10 nM
GI50 (DU-145 [22]): < 10 nM
IC50 (PC-3 [23]): 1.43 to 12 µM
IC50 (MDA-MB-231 [24]): 550 to 4630 nM
IC50 (HeLa [25]): 550 to 4630 nM
IC50 (HT-29): 15 to 335 nM
GI50 (MDA-MB-231 [26]): 23 to 97 nM
GI50 (PANC-1): < 10 nM
IC50 (T47D): 1000 to 10000 nM
IC50 (MDA-MB-231 [27]): 80 to 425 nM
IC50 (A549 [28]): 1.43 to 12 µM
GI50 (MDA-MB-231 [29]): < 10 nM
GI50 (IMR-32 [30]): 23 to 97 nM
IC50 (A549 [15]): 3.3 µM
IC50 (MDA-MB-231 [31]): 1.43 to 12 µM
IC50 (MCF7 [16]): 1000 to 10000 nM
IC50 (Caco-2): 1 to 10 µM
IC50 (HCT-116): 0.55 to 10 µM
IC50 (MDA-MB-231 [32]): 600 nM
IC50 (MOLT-4): 15 to 335 nM
IC50 (MCF7 [6]): 15 to 335 nM
GI50 (SiHa): < 10 nM

SMILES: COc1cc([C@@H]2c3cc4c(cc3[C@H](O)[C@H]3COC(=O)[C@H]23)OCO4)cc(OC)c1OC [PODOFILOX]
IC50 (DU-145 [12]): 3.06 to 6.63 µM
IC50 (PC-3 [33]): 3.06 to 34.4 µM
IC50 (HepG2 [34]): 3.06 to 6.63 µM
IC50 (HeLa [13]): 3.06 to 6.63 µM
IC50 (MCF7 [14]): 3.06 to 34.4 µM
IC50 (A549 [15]): 3.06 to 34.4 µM
IC50 (NIH3T3): 3.06 to 6.63 µM
